Source: paper PMC7394379, “Structure-guided screening strategy combining surface plasmon resonance with nuclear magnetic resonance for identification of small-molecule Argonaute 2 inhibitors” (PLoS ONE, 2020)
Where two headings read alike, the source gives them in different places.

Assays:
AGO2 MID domain [1] = molecular target: T1, AGO2 MID domain (Homo sapiens, UniProt Q9UKV8); experiment: SPR inhibition, immobilised biotin-PEG-UMP versus AGO2 MID domain; assay type: binding
T1 construct: MID domain Gln432-Leu578 (147 residues); pE-SUMOpro-3 His-SUMO fusion, tag removed by SUMO protease 2; E. coli BL21(DE3); 15N-labelled for NMR

AGO2 MID domain [2] = molecular target: T1, AGO2 MID domain; experiment: as above; assay type: binding; conditions: HBS-EP+ pH 7.4, 2 mM DTT, 5% DMSO; competition at the 5'-terminal nucleotide site
AGO2 MID domain [3] = molecular target: T1, AGO2 MID domain; experiment: 1H-15N HSQC NMR chemical shift perturbation; conditions: 20 °C, pH 6.70, 25 mM sodium phosphate, 150 mM NaCl, 2 mM TCEP; two binding sites suggested, one overlapping AMP
AGO2 MID domain [4] = molecular target: T1, AGO2 MID domain; experiment: SPR inhibition, immobilised biotin-PEG-UMP versus AGO2 MID domain; assay type: binding; conditions: read-out: % inhibition at 500 μmol/L
[5] = HBS-EP+ pH 7.4, 2 mM DTT, 5% DMSO, competition at the 5'-terminal nucleotide site

Row | SMILES | IC50 (AGO2 MID domain [1]; [5]) | IC30 (AGO2 MID domain [2]) | further results
1 | Nc1ncnc2c1ncn2[C@@H]1O[C@H](COP(=O)(O)O)[C@@H](O)[C@H]1O [AMP] | – | – | IC50 (AGO2 MID domain [1]; read-out: IC50): ~200 µM
2 | Nc1ccn([C@@H]2O[C@H](COP(=O)(O)O)[C@@H](O)[C@H]2O)c(=O)n1 [CMP] | AMP and UMP showed a stronger inhibition than CMP and GMP | – | –
3 | Nc1nc2c(ncn2[C@@H]2O[C@H](COP(=O)(O)O)[C@@H](O)[C@H]2O)c(=O)[nH]1 [GMP] | AMP and UMP showed a stronger inhibition than CMP and GMP | – | –
4 | O=c1ccn([C@@H]2O[C@H](COP(=O)(O)O)[C@@H](O)[C@H]2O)c(=O)[nH]1 [UMP] | AMP and UMP showed a stronger inhibition than CMP and GMP | – | –
5 | COc1cc(C=C2SC(=S)N(C(CCC(=O)O)C(=O)O)C2=O)cc(Cl)c1O (stereo not drawn) [UZI/1999527] | – | Three of the hit compounds showed stronger inhibition than BCI-137 in the SPR analysis | –
6 | COc1ccc(-c2nn(CCC(=O)O)cc2C=C2SC(=S)NC2=O)cc1 [Z56862757] | – | Three of the hit compounds showed stronger inhibition than BCI-137 in the SPR analysis | 1H-15N HSQC NMR chemical shift perturbation (AGO2 MID domain [3]): NMR analysis suggests two Z56862757 binding sites, only one site could overlap with AMP
7 | Cc1cccc(C(Nc2ccc3c(c2)OC(F)(F)O3)P(=O)(O)O)c1 (stereo not drawn) [Z317095268] | – | Three of the hit compounds showed stronger inhibition than BCI-137 in the SPR analysis | –
8 | Nc1ncnc2c1ncn2[C@@H]1O[C@H](CO)[C@@H](O)[C@H]1O [adenosine] | – | – | inhibition at 500 µM (AGO2 MID domain [4]): < 10%
